The values below come from publication PMC4314249, “Characterizing the Peroxisome Proliferator-Activated Receptor (PPARγ) Ligand Binding Potential of Several Major Flame Retardants, Their Metabolites, and Chemical Mixtures in House Dust” (Environmental Health Perspectives, 2014).

Data set [1] is described as follows: MEHP formation on incubation of dust with S9 fraction. It is filed as in vitro ADME, Sprague-Dawley rats. How it is done: Bioactivation of dust samples. We assessed the influence of biotransformation on ligand binding activity by incubating dust extracts in pooled liver S9 fractions prepared from Sprague-Dawley rats [Rat (Sprague-Dawley) S9 Fractions; Gibco, Grand Island, NY). Bioactivation was assessed in 7 of the 23 dust samples (1 dust sample was tested in triplicate, while the others were tested once because of dust mass limitations) and in SRM 2585 (n = 3). The 7 dust samples were from groups A (samples 5, 7, and 8), B (samples 9 and 10), and C (samples 11 and 12). The influence of biotransformation was also investigated using pure chemical standards. DEHP (100 μM) and a mixture (MIX) containing 1 μM each of FM550, isopropylated triaryl phosphate (ITP), BDE-47, BDE-99, and DEHP were evaluated for binding activity before and after bioactivation. For a detailed description of the method, see Supplemental Material, “Bioactivation of Dust Samples” and Figure S3. Briefly, dust samples were bioactivated by incubation with an S9 fraction (1 mg protein/mL), extracted, and cleaned by dextran-assisted liquid–liquid extraction and phenolic extraction. […]
For each dose level of tested compounds, triplicate samples were prepared and each well was read five times in the plate reader. […]

Data set [2] concerns the target T1, human PPARγ ligand-binding domain (Homo sapiens, UniProt P37231).
T1 construct: The kit uses the human-derived recombinant PPARγ LBD tagged with an N-terminal GST-tag; purchased Invitrogen
T1 sequence (P37231 238-503 limits assumed): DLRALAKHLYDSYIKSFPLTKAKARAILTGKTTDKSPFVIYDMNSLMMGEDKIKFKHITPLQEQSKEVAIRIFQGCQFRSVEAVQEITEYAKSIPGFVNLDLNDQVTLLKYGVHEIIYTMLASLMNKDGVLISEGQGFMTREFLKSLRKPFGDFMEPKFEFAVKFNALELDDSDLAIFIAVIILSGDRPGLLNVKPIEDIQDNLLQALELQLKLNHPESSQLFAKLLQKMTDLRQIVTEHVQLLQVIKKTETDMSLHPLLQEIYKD
Nature of the data set: PolarScreen PPARγ-Competitor fluorescence polarization ligand binding assay. Background: In fluorescence polarisation assays a small probe gives low polarisation when free and higher when bound to something large.

For the next data set, the target named is T2, PPARγ LBD (Homo sapiens, UniProt P37231).
T2 construct: The kit uses the human-derived recombinant PPARγ LBD tagged with an N-terminal GST-tag; purchased Invitrogen
T2 sequence (P37231 238-503 limits assumed): T1 sequence (P37231 238-503 limits assumed)
As to the kind of experiment: PPARγ competitive binding after bioactivation with rat liver S9 fraction (active vs inactive S9). The following applies: 100 μM, n = 3, rat liver S9.

Another data set has as its system PPARγ2. More on the design: method as in Suzuki et al. (2013). The following applies: U2OS reporter assay; ref Suzuki et al. (2013); cited from earlier work.
Where [3] appears, read: calculated from IC50 by equation 3, read-out: Kd (dissociation constant).
[4] abbreviates: read-out: Kd (dissociation constant).

Read-outs that look alike come from different tables or passages of the source.

`CCCCC(CC)COC(=O)c1ccccc1C(=O)O` (centres unmarked) [MEHP, mono(2-ethylhexyl) phthalate]: the MEHP formation rate entry in data set [1] is recorded as “approximately 70 pmol/mg protein/min”.
With `CCCCC(CC)COC(=O)c1ccccc1C(=O)OCC(CC)CCCC` (centres unmarked) [DEHP, di-(2-ethylhexyl) phthalate], the Kd (in general, the concentration at which binding is half-saturated) in data set [2] (setting [3]) was more than 130 µM. Besides, in data set [2] (read-out: IC50), the IC50 (in general, the concentration needed to halve the response being measured) is more than 250 µM. Further, the “change of PPARγ binding potency after bioactivation (in words)” value on PPARγ LBD was “slightly increased”.
Take `Oc1cc(Oc2cc(Br)c(Br)cc2Br)c(Br)cc1Br` [5´-OH-BDE-99]: in data set [2], the Relative potency came out at 0.0077. The IC50 in data set [2] (read-out: IC50) came to 30 µM. Moreover, the Kd in data set [2] (setting [4]) is 15.7 µM.
As for `CCCCOCCOP(=O)(OCCOCCCC)OCCOCCCC` [TBEP, tris(2-butoxyethyl) phosphate], in data set [2], the half-maximal inhibitory concentration (IC50) is 103 µM, the Kd was determined as 53.7 µM and the Relative potency is listed as 0.0022.
In turn, `[Cl][Sn]([c]1ccccc1)([c]1ccccc1)[c]1ccccc1` [TPT, triphenyltin chloride] had a Relative potency in data set [2] of 0.1337. The IC50 in data set [2] (read-out: IC50) was 1.72 µM. Further, the equilibrium dissociation constant (Kd) in data set [2] (setting [4]) stood at 0.9 µM.
On to `Oc1c(Cl)cc(Cl)cc1Cl` [2,4,6-TCP, 2,4,6,-trichlorophenol], for which the Relative potency in data set [2] stood at 0.0023. The IC50 in data set [2] (read-out: IC50) worked out at 100 µM. Further, the dissociation constant (Kd) in data set [2] (setting [4]) was 52.2 µM.
In data set [2], `O=P(Oc1ccccc1)(Oc1ccccc1)Oc1ccccc1` [TPP, triphenyl phosphate] gave an IC50 of 40 µM, a Kd of 20.9 µM and a Relative potency of 0.0058.
In data set [2], `Oc1c(Br)ccc(Oc2ccc(Br)cc2Br)c1Br` [3-OH-BDE-47] yielded a Relative potency of 0.9583. The IC50 in data set [2] (read-out: IC50) is 0.24 µM. Also, the Kd in data set [2] (setting [4]) came out at 0.13 µM.
For `O=P(O)(Oc1ccccc1)Oc1ccccc1` [DPP, diphenyl phosphate], in data set [2], the IC50 was 627 µM, the Kd turned out to be 327 µM and the Relative potency is on record as 0.0004.
Consider `Oc1c(F)cc(F)cc1F` [2,4,6-TFP, 2,4,6-trifluorophenol], for which, in data set [2] (setting [3]), the dissociation constant Kd was more than 130 µM. Besides, the IC50 in data set [2] (read-out: IC50) was more than 250 µM.
Take `Brc1ccc(Oc2cc(Br)c(Br)cc2Br)c(Br)c1` [BDE–99, 2,2´,4,4´,5-pentabromodiphenyl ether]: in data set [2], the “PPARγ binding (in words)” value is recorded as “no binding was observed”. Moreover, the half-inhibitory concentration (IC50) in data set [2] (read-out: IC50) is more than 250 µM. In addition, in data set [2] (setting [4]), the Kd is more than 130 µM.
In the case of `CCCCC(CC)COC(=O)c1c(Br)c(Br)c(Br)c(Br)c1C(=O)OCC(CC)CCCC` (centres unmarked) [TBPH, bis(2-ethylhexyl) tetrabromophthalate], in data set [2], the IC50 was more than 250 µM, the Kd was more than 130 µM and the “PPARγ binding (in words)” value is “did not show any binding activity”.
In data set [2], `Oc1cc(Cl)ccc1Oc1ccc(Cl)cc1Cl` [Triclosan, triclosan] displayed an IC50 of 12.5 µM, a dissociation constant Kd of 6.52 µM and a Relative potency of 0.0184.
On to `Oc1c(Br)cc(Br)cc1Br` [2,4,6-TBP, 2,4,6-Tribromophenol], for which, in data set [2], the concentration for half-maximal inhibition (IC50) turned out to be 36.3 µM, the Kd came out at 18.9 µM and the Relative potency is reported as 0.0063.
In turn, `Oc1cc(Oc2ccc(Br)cc2Br)c(Br)cc1Br` [5-OH-BDE-47] registered a Relative potency in data set [2] of 0.0744. Moreover, the half-maximal inhibitory concentration (IC50) in data set [2] (read-out: IC50) is 3.09 µM. Also, the Kd in data set [2] (setting [4]) is 1.61 µM.
Consider `Oc1cc(Br)cc(Br)c1Oc1ccc(Br)cc1Br` [6-OH-BDE-47], for which, in data set [2], the “PPARγ binding (in words)” value was “not active ligands” and the Relative potency was less than 0.023. In addition, the concentration for half-maximal inhibition (IC50) in data set [2] (read-out: IC50) is more than 10 µM. The Kd in data set [2] (setting [4]) is more than 5.22 µM.
`CC(C)(c1ccc(O)cc1)c1ccc(O)cc1` [BPA, bisphenol A]: in data set [2], the “PPARγ binding (in words)” value is recorded as “did not exhibit any binding”. Besides, the 50% inhibitory concentration (IC50) in data set [2] (read-out: IC50) is more than 250 µM. Also, the dissociation constant (Kd) in data set [2] (setting [4]) is more than 130 µM.
Turning to `Oc1cc(Br)cc(Br)c1Oc1cc(Br)c(Br)cc1Br` [6´-OH-BDE-99], in data set [2], the “PPARγ binding (in words)” value is “not active ligands” and the Relative potency was less than 0.0046. In data set [2] (read-out: IC50), the IC50 is more than 50 µM. Moreover, in data set [2] (setting [4]), the Kd is more than 26.1 µM.
Turning to `CCCCC(CC)COC(=O)c1cc(Br)c(Br)c(Br)c1Br` (centres unmarked) [TBB, 2-ethylhexyl-2,3,4,5-tetrabromobenzoate], in data set [2], the IC50 is more than 250 µM, the Kd is more than 130 µM and the “PPARγ binding (in words)” value is listed as “did not show any binding activity”.
In data set [2], `O=C(O)c1cc(Br)c(Br)c(Br)c1Br` [TBBA, 2,3,4,5-tetrabromo benzoic acid] returned an IC50 of 42 µM, an equilibrium dissociation constant (Kd) of 22.1 µM and a Relative potency of 0.0055.
Consider `Brc1ccc(Oc2ccc(Br)cc2Br)c(Br)c1` [BDE-47, 2,2´,4,4´-tetrabromodiphenyl ether], for which, in data set [2] (read-out: IC50), the IC50 is more than 12 µM. The equilibrium dissociation constant (Kd) in data set [2] (setting [4]) was more than 6.25 µM. Also, the 5% induction concentration with PPARγ2 is 10 µM.
Regarding `CC(C)(c1cc(Cl)c(O)c(Cl)c1)c1cc(Cl)c(O)c(Cl)c1` [TCBPA, 3,3´,5,5´-tetrachlorobisphenol A], in data set [2], the Relative potency is recorded as 0.0444. Also, the IC50 in data set [2] (read-out: IC50) stood at 5.18 µM. Moreover, the Kd in data set [2] (setting [4]) was found to be 2.7 µM.
For `Oc1c(I)cc(I)cc1I` [2,4,6-TIP, 2,4,6-triiodophenol], in data set [2], the IC50 was 1.84 µM, the Kd came to 0.96 µM and the Relative potency was determined as 0.1250.
